In paper PMC12535076, “Neurotherapeutic effects of Vutiglabridin as a Paraoxonase-2 modulator in preclinical models of Parkinson’s disease” (Molecular Neurodegeneration, 2025):

Assays:
[1] = test system: MPTP-injected C57BL/6 mice; assay: MPTP-injected sub-acute PD mouse model (pole test, rotarod, TH immunohistochemistry); type: in vivo; details: MPTP mice
Procedure: (§1) Animals were allowed at least 1 week of acclimatization before being subjected to the study and were housed in a regulated environment with a 12-h/12-h light/dark cycle. Food and water were provided ad libitum. The animal experiment was carried out in accordance with the National Institutes of Health Guide for the Care and Use of Laboratory Animals (NIH Publications No. 80–23; revised 1996). All procedures for handling mice were carried out in accordance with “Principles of Laboratory Animal Care” and the Animal Care and Use guidelines of Kyung Hee University, Seoul, Korea (KHSASP-20-163).
(§2) MPTP was dissolved in distilled water and injected intraperitoneally for five days from day 10 of the 21-day experiment period. Vuti or rasagiline was administered via oral gavage for 21 days. Vehicles for both Vuti and MPTP (distilled water) were administered to all mice. Mice were randomly divided for all studies. For the first set of studies shown in Fig. 3, each group consisted of 5 animals.
To determine forelimb and hindlimb motor coordination and balance, we performed the rotarod test as described previously. Also, the pole test was performed to measure bradykinesia. For the rotarod test, the animals were pre-trained on the rotating bar of a rotarod unit set (LE 8500, Letica, Spain) on days 18 and 19 before the test on day 20. During pre-training, three trials per day were performed (5 rpm rotation speed on the first day, 15 rpm rotation speed on the second day). Mice were kept on the rotating bar (7.3-cm diameter) for 5 min on each trial. On day 20, the time spent on the rotating bar at 20 rpm, which was defined as the latent period, was recorded. Performance was recorded as 300 s if the latent period exceeded 300 s. Mice had at least 5 min of rest between trials to reduce stress and fatigue. Each animal underwent three test trials, and the mean of the test results was subjected to statistical analysis. For the pole test, mice were held on the top of the pole (diameter 8 mm, height 55 cm, with a rough surface). The time to land down and place four fee on the floor was recorded as the time for locomotion activity (T-LA).
On day 21, mice were anesthetized with sodium pentobarbital (50 mg/kg intraperitoneally) and transcardially perfused with saline containing 0.5% sodium nitrate and heparin (10 U/mL) and then fixed with 4% PFA in 0.1 M phosphate-buffer (PB, pH 7.2). Dissected brains were post-fixed overnight in buffered 4% PFA at 4 °C and stored in a 30% sucrose solution until they sank. Brains were cryosectioned into 30 μm thick coronal sections in a Cryostat (Microsystems AG, Leica, Wetzlar, Germany) and stored until use at 4℃ in a cryoprotectant (25% ethylene glycol, 25% glycerol, 0.2 M PB, and water). All sections were collected in six separate series and processed for immunostaining.
Free-floating brain sections were processed with the avidin-biotin peroxidase complex (ABC) complex (Vector Laboratories, Burlingame, CA, USA) method. Briefly, brain sections were incubated with primary rabbit anti-TH antibodies (1:1000; Pel-Freez Biologicals, Rogers, AR, USA) overnight at 4 °C, with biotinylated anti-rabbit IgG (1:400) for 1 h at room temperature, and then with the ABC solution (1:1:200) for 1 h at room temperature. The immunoperoxidase signals of TH was detected by incubating sections with 0.5 mg/ml 3,3′-diaminobenzidine (Sigma, St. Louis, MO, USA) in 0.1 M PB containing 0.003% H2O2. Stained brain sections were mounted on gelatin-coated slides and imaged under a bright-field microscope (Olympus Optical, Tokyo, Japan). TH-positivity in the ST was measured by the optical density of TH-positive fibers at x40 magnification using ImageJ software (National Institutes of Health, Bethesda, MD, USA). TH-positive cells in the SNpc in brain tissue Sect. (5 sections/series) were counted at x100 magnification as previously described. […]

[2] = test system: PON2-KD and wild-type C57BL/6 mice; assay: MPTP model in wild-type and PON2-knockdown mice; type: in vivo, mouse
Procedure: as §1, §2
To determine forelimb and hindlimb motor coordination and balance, we performed the rotarod test as described previously. Also, the pole test was performed to measure bradykinesia. […] On day 20, the time spent on the rotating bar at 20 rpm, which was defined as the latent period, was recorded. Performance was recorded as 300 s if the latent period exceeded 300 s. […] The time to land down and place four fee on the floor was recorded as the time for locomotion activity (T-LA). […]
Free-floating brain sections were processed with the avidin-biotin peroxidase complex (ABC) complex (Vector Laboratories, Burlingame, CA, USA) method. […] The immunoperoxidase signals of TH was detected by incubating sections with 0.5 mg/ml 3,3′-diaminobenzidine (Sigma, St. Louis, MO, USA) in 0.1 M PB containing 0.003% H2O2. […] TH-positivity in the ST was measured by the optical density of TH-positive fibers at x40 magnification using ImageJ software (National Institutes of Health, Bethesda, MD, USA). […] (5 sections/series) were counted at x100 magnification as previously described. […]

MAO-B = biological target: T1, MAO-B (Homo sapiens, UniProt P27338); assay: HRP/Amplex red based MAO-B enzyme activity assay; type: biochemical; details: read-out: IC50, MAO-B assay, HRP/AR method
T1 sequence (P27338 1-520): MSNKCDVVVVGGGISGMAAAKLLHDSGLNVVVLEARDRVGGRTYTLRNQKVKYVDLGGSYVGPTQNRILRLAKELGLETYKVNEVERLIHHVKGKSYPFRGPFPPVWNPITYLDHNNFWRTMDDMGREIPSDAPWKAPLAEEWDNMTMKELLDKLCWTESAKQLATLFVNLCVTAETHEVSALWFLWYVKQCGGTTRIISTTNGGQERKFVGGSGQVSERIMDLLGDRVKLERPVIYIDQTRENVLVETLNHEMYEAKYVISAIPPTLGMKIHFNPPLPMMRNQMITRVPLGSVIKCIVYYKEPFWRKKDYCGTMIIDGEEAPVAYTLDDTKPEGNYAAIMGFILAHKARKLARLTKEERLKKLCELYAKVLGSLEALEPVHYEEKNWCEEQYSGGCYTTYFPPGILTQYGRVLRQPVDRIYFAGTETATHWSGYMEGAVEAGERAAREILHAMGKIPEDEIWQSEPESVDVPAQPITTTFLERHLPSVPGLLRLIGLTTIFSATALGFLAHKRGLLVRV
Procedure: MAO-A or MAO-B enzyme solutions were prepared by diluting 10 µL of a 2.5 mg/mL MAO-A or MAO-B stock into 10 mL of 50 mM sodium phosphate buffer (pH 7.4). A substrate assay mixture was then prepared by combining benzylamine (for MAO-B) or tyramine (for MAO-A) from a 100 mM stock (200 µL in 10 mL phosphate buffer, final concentration 1 mM) with 100 µL of a 20 mM AR reagent stock (final concentration 0.1 mM) and 100 µL of a 200 U/mL HRP stock (final concentration 1 U/mL) in 10 mL phosphate buffer. […] Next, 50 µL of the substrate assay mixture was added, and the reaction was carried out at 37 °C for 60 min. The production of resorufin was quantified by fluorescence measurement (excitation at 540 nm and emission at 580 nm).

[3] = Vuti 1, 50, 100 mg/kg/day or rasagiline 0.1 mg/kg/day orally for 21 days

## CCOc1ccc(C2COc3c(ccc4c3CCC(C)(C)O4)C2)c(O)c1 (centres unmarked) [Vuti, Vutiglabridin]
[1]; [3]
  effect on T-LA in the pole test: significantly normalized
  effect on latency to fall in the rotarod test: significantly normalized
[1]; Vuti 1, 50, 100 mg/kg/day oral, p < 0.001 vs. control, levels comparable to rasagiline
  number of TH-positive cells in the SNpc and fiber density in the ST: dose-dependently increased
[1]; no difference in neuroprotection between 50 and 100 mg/kg
  maximum efficacy dose: 50 mg/kg
[2]; PON2-KD mice, MPTP, Vuti 50 mg/kg oral for three weeks
  neuroprotective effects in PON2-KD mice: absent
[2]; non-MPTP-injected wild-type mice, 50 mg/kg Vuti, vs vehicle-only
  motor behavior, dopaminergic neuronal cell count and fiber density without MPTP: no changes
[2]; wild-type mice, MPTP, Vuti 50 mg/kg for three weeks
  MPTP-induced damage to motor behaviors and dopaminergic neurons in wild-type mice: significantly attenuated
MAO-B
  IC50: 425 µM
